Source: ChEMBL document CHEMBL1201862, “PubChem BioAssay data set” (2004)
Values joined by “and” are separate entries in the source; they are usually repeats but may differ in a detail not shown here. Identical values can stand only once.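 The compound was tested at five concentrations on cells cultured in 96-well plates, with a 48-hour exposure period. GI50: concentration for 50% inhibition of growth.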 Active and inactive are the calls of the source. No stated cut-off is given here; in the data, active = GI50 up to about 1.1 µM and inactive = higher.

Columns and labels:
Test in all cases: NCI tumour cell line growth inhibition, 48 h
SW-620 = test system: SW-620
NCI-H460 = test system: NCI-H460
CCRF-CEM = test system: CCRF-CEM
K562 = test system: K562
NCI-H226 = test system: NCI-H226
DU-145 = test system: DU-145
PC-3 = test system: PC-3
NCI/ADR-RES = test system: NCI/ADR-RES
MDA-N = test system: MDA-N
SK-MEL-28 = test system: SK-MEL-28
T47D = test system: T47D
HCT-116 = test system: HCT-116
OVCAR-5 = test system: OVCAR-5
COLO 205 = test system: COLO 205
MCF7 = test system: MCF7
RXF 393 = test system: RXF 393
SNB-19 = test system: SNB-19
HL-60 = test system: HL-60
NCI-H23 = test system: NCI-H23
RPMI-8226 = test system: RPMI-8226
UO-31 = test system: UO-31
SR = test system: SR
HOP-92 = test system: HOP-92
TK-10 = test system: TK-10
OVCAR-3 = test system: OVCAR-3
SF-268 = test system: SF-268
Malme-3M = test system: Malme-3M
HT-29 = test system: HT-29
SF-539 = test system: SF-539
SN12C = test system: SN12C
HCT-15 = test system: HCT-15
EKVX = test system: EKVX
786-0 = test system: 786-0
HOP-62 = test system: HOP-62
A549 = test system: A549
KM12 = test system: KM12
SF-295 = test system: SF-295
ACHN = test system: ACHN
UACC-257 = test system: UACC-257
OVCAR-8 = test system: OVCAR-8
M14 = test system: M14
MOLT-4 = test system: MOLT-4
BT-549 = test system: BT-549
U-251 = test system: U-251
MDA-MB-435 = test system: MDA-MB-435
HCC 2998 = test system: HCC 2998
CAKI-1 = test system: CAKI-1
A498 = test system: A498
Hs-578T = test system: Hs-578T
LOX IMVI = test system: LOX IMVI
SK-MEL-2 = test system: SK-MEL-2
IGROV-1 = test system: IGROV-1
NCI-H522 = test system: NCI-H522
UACC-62 = test system: UACC-62
OVCAR-4 = test system: OVCAR-4
SK-MEL-5 = test system: SK-MEL-5
SK-OV-3 = test system: SK-OV-3
MDA-MB-231 = test system: MDA-MB-231
SNB-75 = test system: SNB-75

Measured: GI50

Cc1ccc(/S(Cc2ccccc2)=N\S(=O)(=O)c2ccc(C)cc2)cc1 (centres undefined)
inactive: SW-620 > 100 µM | NCI-H460 > 100 µM | CCRF-CEM > 100 µM | K562 > 100 µM | NCI-H226 > 100 µM | DU-145 > 100 µM | PC-3 > 100 µM | NCI/ADR-RES 50 µM | MDA-N > 100 µM | SK-MEL-28 > 100 µM | T47D > 100 µM | HCT-116 > 100 µM | OVCAR-5 > 100 µM | COLO 205 > 100 µM | MCF7 > 100 µM | RXF 393 > 100 µM | SNB-19 > 100 µM | HL-60 > 100 µM | NCI-H23 > 100 µM | RPMI-8226 > 100 µM | UO-31 > 100 µM | SR > 100 µM | HOP-92 > 100 µM | TK-10 > 100 µM | OVCAR-3 > 100 µM | SF-268 > 100 µM | Malme-3M > 100 µM | HT-29 > 100 µM | SF-539 > 100 µM | SN12C > 100 µM | EKVX > 100 µM | 786-0 > 100 µM | HOP-62 > 100 µM | A549 > 100 µM | KM12 > 100 µM | SF-295 > 100 µM | ACHN > 100 µM | UACC-257 > 100 µM | OVCAR-8 > 100 µM | M14 > 100 µM | MOLT-4 5.92 µM | BT-549 > 100 µM | U-251 > 100 µM | MDA-MB-435 > 100 µM
95.1 µM: HCT-15

CC(=O)NC1(C(=O)N[C@@H](Cc2ccccc2)C(=O)NC2CCCCC2)Cc2ccc3ccccc3c2-c2c(ccc3ccccc23)C1
6.61 µM and 3.9 µM: HCT-15
inactive: SW-620 17.8 µM and 25.3 µM | HCC 2998 6.73 µM and 4.54 µM | NCI-H460 6.17 µM and 3.41 µM | CCRF-CEM 5.18 µM and 3.47 µM | NCI/ADR-RES 3.94 µM and 6.82 µM | T47D 4.55 µM and 5.27 µM | HCT-116 4.48 µM and 6.7 µM | MCF7 3.03 µM and 5.48 µM | CAKI-1 26.7 µM and 15.6 µM | HL-60 5.02 µM and 3.49 µM | SR 14.7 µM and 12.6 µM | HOP-92 48.6 µM and 32 µM | HT-29 6.37 µM and 4.84 µM | 786-0 8.95 µM and 8.73 µM | A498 14.6 µM and 21.2 µM | Hs-578T > 100 µM | LOX IMVI 53.2 µM and 50.5 µM | SK-MEL-2 15.3 µM and 7.89 µM | ACHN 4.06 µM and 7.73 µM | BT-549 8.97 µM and 15.2 µM | U-251 9.53 µM and 5.89 µM

CCCCCCc1cc2cc(C(=O)Nc3ccc(F)cc3)c(=N)oc2cc1O
2.51 µM: HCT-15
inactive: SW-620 3.25 µM | HCC 2998 5.37 µM | NCI-H460 3.51 µM | CCRF-CEM 1.35 µM | K562 1.18 µM | DU-145 2.71 µM | PC-3 3.37 µM | NCI/ADR-RES 2.67 µM | MDA-N 3.57 µM | SK-MEL-28 3.27 µM | IGROV-1 1.49 µM | HCT-116 2.51 µM | OVCAR-5 16 µM | COLO 205 30.8 µM | MCF7 3.09 µM | CAKI-1 3.09 µM | SNB-19 2.98 µM | HL-60 1.96 µM | NCI-H23 1.78 µM | RPMI-8226 1.17 µM | UO-31 3.36 µM | SR 2.62 µM | OVCAR-3 3.48 µM | Malme-3M 2.32 µM | HT-29 28 µM | SF-539 2.17 µM | EKVX 3.27 µM | 786-0 3.63 µM | UACC-62 1.92 µM | HOP-62 3.28 µM | A498 5.05 µM | LOX IMVI 2.08 µM | SK-MEL-2 3.13 µM | A549 3.21 µM | OVCAR-4 2.52 µM | KM12 2.92 µM | SF-295 3.96 µM | ACHN 2.89 µM | UACC-257 3.37 µM | OVCAR-8 1.58 µM | M14 2.92 µM | SK-MEL-5 1.4 µM | MOLT-4 1.93 µM | BT-549 2.66 µM | U-251 2.45 µM | SK-OV-3 2.58 µM | MDA-MB-435 2.92 µM
active: NCI-H522 0.655 µM | SF-268 0.735 µM | Hs-578T 0.9 µM

COC(=N)C12C(N)=NC(OC)(OC)C1(C#N)C21C(=O)N(c2ccccc2)N=C1C (centres undefined)
inactive: SW-620 > 100 µM | HCC 2998 > 100 µM | NCI-H460 > 100 µM | CCRF-CEM 36.2 µM | MDA-MB-231 > 100 µM | K562 > 100 µM | NCI-H226 > 100 µM | DU-145 > 100 µM | PC-3 > 100 µM | NCI/ADR-RES > 100 µM | MDA-N > 100 µM | SK-MEL-28 > 100 µM | IGROV-1 > 100 µM | T47D > 100 µM | NCI-H522 > 100 µM | HCT-116 > 100 µM | OVCAR-5 > 100 µM | COLO 205 > 100 µM | MCF7 > 100 µM | RXF 393 > 100 µM | CAKI-1 > 100 µM | SNB-19 > 100 µM | HL-60 > 100 µM | NCI-H23 > 100 µM | RPMI-8226 > 100 µM | UO-31 > 100 µM | SR 37.6 µM | HOP-92 > 100 µM | OVCAR-3 > 100 µM | SF-268 > 100 µM | Malme-3M > 100 µM | HT-29 > 100 µM | SNB-75 > 100 µM | SF-539 > 100 µM | SN12C > 100 µM | EKVX > 100 µM | 786-0 > 100 µM | UACC-62 > 100 µM | HOP-62 > 100 µM | A498 > 100 µM | SK-MEL-2 > 100 µM | A549 > 100 µM | OVCAR-4 > 100 µM | KM12 > 100 µM | SF-295 > 100 µM | ACHN > 100 µM | UACC-257 > 100 µM | OVCAR-8 > 100 µM | M14 > 100 µM | MOLT-4 > 100 µM | BT-549 > 100 µM | U-251 > 100 µM | SK-OV-3 > 100 µM | MDA-MB-435 > 100 µM
> 100 µM: HCT-15

O=[N+]([O-])/C=C/c1ccc2ccccc2c1
inactive: SW-620 2.47 µM | NCI-H460 6.81 µM | CCRF-CEM 4.61 µM | MDA-MB-231 3.82 µM | K562 3.78 µM | NCI-H226 7.89 µM | DU-145 4.07 µM | PC-3 6.49 µM | NCI/ADR-RES 4.27 µM | SK-MEL-28 2.23 µM | IGROV-1 2.79 µM | NCI-H522 9.68 µM | HCT-116 2.73 µM | OVCAR-5 3.52 µM | COLO 205 2.29 µM | MCF7 1.86 µM | RXF 393 2.49 µM | CAKI-1 8.43 µM | SNB-19 2.19 µM | HL-60 2.37 µM | NCI-H23 3.6 µM | UO-31 7.41 µM | HOP-92 6.62 µM | TK-10 6.21 µM | OVCAR-3 2.86 µM | SF-268 4.57 µM | Malme-3M 15.6 µM | HT-29 2.53 µM | SNB-75 2 µM | SF-539 3.04 µM | SN12C 5.64 µM | EKVX 22.7 µM | 786-0 2.85 µM | UACC-62 15.4 µM | HOP-62 5.53 µM | A498 13 µM | Hs-578T 4.44 µM | LOX IMVI 1.87 µM | SK-MEL-2 22.6 µM | A549 8.05 µM | OVCAR-4 13.3 µM | KM12 1.77 µM | SF-295 3.99 µM | ACHN 1.96 µM | UACC-257 2.6 µM | OVCAR-8 2.69 µM | M14 3.99 µM | SK-MEL-5 3.19 µM | BT-549 2.74 µM | U-251 1.92 µM | SK-OV-3 2.57 µM | MDA-MB-435 2.04 µM
2.22 µM: HCT-15
active: T47D 0.692 µM | RPMI-8226 0.372 µM | SR 0.436 µM
